Among the data in ChEMBL document CHEMBL1201862, “PubChem BioAssay data set” (2004) are AC50, IC50 and EC50 values, retold here.

The source made the active and inactive calls.

Experiment [1] concerns the target Adenosylmethionine-8-amino-7-oxononanoate aminotransferase (Mycobacterium tuberculosis, UniProt P9WQ81). Description: Mycobacterium tuberculosis BioA enzyme inhibitor Measured in Biochemical System Using Plate Reader - 2163-02_Inhibitor_Dose_CherryPick_Activity. Format: functional, Mycobacterium tuberculosis UT205.
The target of the next experiment is T1, Caspase-3 (Homo sapiens, UniProt P42574).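 Note: Dose-response selectivity test against caspase-3 for candidate inhibitors of sentrin-specific proteases (SENPs).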
T1 sequence (P42574 whole entry): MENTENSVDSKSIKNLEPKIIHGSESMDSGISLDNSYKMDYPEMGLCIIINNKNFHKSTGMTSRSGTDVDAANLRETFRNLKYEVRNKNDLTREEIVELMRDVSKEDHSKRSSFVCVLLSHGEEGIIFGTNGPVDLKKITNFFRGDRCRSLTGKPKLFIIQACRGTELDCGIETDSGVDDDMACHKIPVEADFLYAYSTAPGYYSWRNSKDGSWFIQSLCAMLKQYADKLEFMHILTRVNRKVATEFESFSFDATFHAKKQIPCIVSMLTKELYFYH
It is filed as functional.

Experiment [2] concerns the target T2, Sentrin-specific protease 7 (Homo sapiens, UniProt Q9BQF6).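 Note: Luminescence-based dose-response confirmation of ultra-high-throughput screening hits, measuring inhibition of SENP7.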
T2 sequence (Q9BQF6 whole entry): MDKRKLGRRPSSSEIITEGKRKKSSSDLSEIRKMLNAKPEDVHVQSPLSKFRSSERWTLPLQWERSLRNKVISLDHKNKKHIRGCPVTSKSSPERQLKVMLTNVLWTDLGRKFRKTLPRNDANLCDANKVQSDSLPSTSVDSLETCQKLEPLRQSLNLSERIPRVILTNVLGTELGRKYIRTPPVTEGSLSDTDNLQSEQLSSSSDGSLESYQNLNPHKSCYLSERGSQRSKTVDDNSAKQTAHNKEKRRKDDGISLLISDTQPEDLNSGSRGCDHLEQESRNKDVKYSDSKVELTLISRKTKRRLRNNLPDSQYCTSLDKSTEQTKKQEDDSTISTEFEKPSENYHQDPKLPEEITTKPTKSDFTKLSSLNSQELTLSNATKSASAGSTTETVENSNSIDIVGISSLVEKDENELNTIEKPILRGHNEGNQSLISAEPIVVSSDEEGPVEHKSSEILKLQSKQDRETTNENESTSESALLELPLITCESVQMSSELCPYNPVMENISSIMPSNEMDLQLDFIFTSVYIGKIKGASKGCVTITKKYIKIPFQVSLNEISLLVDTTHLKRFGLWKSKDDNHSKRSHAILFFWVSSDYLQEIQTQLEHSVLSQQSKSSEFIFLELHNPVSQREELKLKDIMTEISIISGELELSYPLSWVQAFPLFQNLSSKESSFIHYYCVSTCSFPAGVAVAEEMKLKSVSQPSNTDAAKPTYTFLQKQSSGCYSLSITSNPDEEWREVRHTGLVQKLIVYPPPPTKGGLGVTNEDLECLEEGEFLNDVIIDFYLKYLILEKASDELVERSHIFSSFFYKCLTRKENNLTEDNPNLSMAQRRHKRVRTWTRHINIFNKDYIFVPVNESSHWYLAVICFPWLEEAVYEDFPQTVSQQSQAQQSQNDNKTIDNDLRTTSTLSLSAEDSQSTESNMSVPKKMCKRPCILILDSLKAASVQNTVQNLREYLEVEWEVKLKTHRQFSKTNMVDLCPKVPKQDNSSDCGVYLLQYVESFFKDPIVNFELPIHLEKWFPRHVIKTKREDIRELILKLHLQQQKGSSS
Format: functional.

The target of experiment [3] is T3, Sentrin-specific protease 6 (Homo sapiens, UniProt Q9GZR1).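 Note: Luminescence-based dose-response confirmatory assay of SENP6 inhibition, following up an ultra-high-throughput screen.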
T3 sequence (Q9GZR1 whole entry): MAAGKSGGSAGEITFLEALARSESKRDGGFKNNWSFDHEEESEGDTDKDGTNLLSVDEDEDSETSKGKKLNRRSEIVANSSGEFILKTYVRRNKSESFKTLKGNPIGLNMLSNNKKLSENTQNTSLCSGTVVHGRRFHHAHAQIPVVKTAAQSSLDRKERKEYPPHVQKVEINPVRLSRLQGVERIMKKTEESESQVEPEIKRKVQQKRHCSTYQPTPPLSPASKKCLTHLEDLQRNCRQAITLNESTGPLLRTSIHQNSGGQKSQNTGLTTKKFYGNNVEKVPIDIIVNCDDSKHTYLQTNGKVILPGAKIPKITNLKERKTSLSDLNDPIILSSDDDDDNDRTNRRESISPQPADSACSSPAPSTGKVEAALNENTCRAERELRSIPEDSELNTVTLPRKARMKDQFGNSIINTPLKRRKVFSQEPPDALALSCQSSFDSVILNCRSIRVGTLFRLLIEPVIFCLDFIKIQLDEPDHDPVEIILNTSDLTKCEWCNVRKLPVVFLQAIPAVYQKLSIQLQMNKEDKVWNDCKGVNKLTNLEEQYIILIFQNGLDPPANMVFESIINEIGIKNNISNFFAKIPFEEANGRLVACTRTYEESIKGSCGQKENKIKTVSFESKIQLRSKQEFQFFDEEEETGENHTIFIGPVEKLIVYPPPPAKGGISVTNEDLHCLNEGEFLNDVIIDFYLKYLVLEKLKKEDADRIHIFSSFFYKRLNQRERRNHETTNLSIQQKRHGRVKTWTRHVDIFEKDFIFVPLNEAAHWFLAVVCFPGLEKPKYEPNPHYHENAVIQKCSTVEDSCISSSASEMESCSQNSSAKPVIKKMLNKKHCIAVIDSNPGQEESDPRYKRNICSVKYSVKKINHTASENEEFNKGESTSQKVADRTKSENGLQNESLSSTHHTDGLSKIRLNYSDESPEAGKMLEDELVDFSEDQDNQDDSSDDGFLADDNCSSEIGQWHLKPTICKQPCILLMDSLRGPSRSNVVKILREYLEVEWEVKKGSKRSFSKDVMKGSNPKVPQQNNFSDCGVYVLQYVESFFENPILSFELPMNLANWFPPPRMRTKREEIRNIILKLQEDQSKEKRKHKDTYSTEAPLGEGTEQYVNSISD
It is filed as functional.

For experiment [4], the target named is T4, Sentrin-specific protease 8 (Homo sapiens, UniProt Q96LD8).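 Note: luminescence read-out of SENP8 inhibition, dose-response confirmation following an ultra-high-throughput screen.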
T4 sequence (Q96LD8 whole entry): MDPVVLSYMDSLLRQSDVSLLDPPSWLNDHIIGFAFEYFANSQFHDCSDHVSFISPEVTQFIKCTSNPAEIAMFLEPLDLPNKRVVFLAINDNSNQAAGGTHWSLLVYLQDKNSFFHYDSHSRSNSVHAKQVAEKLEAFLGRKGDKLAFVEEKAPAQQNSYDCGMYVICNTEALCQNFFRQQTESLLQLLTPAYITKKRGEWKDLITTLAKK
Format: functional.

Experiment [5] has as its target T5, Low molecular weight phosphotyrosine protein phosphatase (Homo sapiens, UniProt P24666).
T5 sequence (P24666 whole entry): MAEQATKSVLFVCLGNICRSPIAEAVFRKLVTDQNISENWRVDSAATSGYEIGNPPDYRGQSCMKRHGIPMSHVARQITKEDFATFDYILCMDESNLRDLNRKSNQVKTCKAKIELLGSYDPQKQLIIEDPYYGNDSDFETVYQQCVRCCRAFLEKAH
It is filed as functional. The conditions noted are these: read-out: IC50_Mean.

Experiment [6] addresses T5, Low molecular weight phosphotyrosine protein phosphatase. It is filed as functional. The settings on record: read-out: IC50_Mean. This is another data set of the same source.
The target of experiment [7] is Aryl hydrocarbon receptor (Homo sapiens, UniProt P35869). The conditions noted are these: Potency.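 Note: confirmatory quantitative high-throughput screen measuring activation of the AhR signaling pathway.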
Aryl hydrocarbon receptor, sequence (P35869 whole entry): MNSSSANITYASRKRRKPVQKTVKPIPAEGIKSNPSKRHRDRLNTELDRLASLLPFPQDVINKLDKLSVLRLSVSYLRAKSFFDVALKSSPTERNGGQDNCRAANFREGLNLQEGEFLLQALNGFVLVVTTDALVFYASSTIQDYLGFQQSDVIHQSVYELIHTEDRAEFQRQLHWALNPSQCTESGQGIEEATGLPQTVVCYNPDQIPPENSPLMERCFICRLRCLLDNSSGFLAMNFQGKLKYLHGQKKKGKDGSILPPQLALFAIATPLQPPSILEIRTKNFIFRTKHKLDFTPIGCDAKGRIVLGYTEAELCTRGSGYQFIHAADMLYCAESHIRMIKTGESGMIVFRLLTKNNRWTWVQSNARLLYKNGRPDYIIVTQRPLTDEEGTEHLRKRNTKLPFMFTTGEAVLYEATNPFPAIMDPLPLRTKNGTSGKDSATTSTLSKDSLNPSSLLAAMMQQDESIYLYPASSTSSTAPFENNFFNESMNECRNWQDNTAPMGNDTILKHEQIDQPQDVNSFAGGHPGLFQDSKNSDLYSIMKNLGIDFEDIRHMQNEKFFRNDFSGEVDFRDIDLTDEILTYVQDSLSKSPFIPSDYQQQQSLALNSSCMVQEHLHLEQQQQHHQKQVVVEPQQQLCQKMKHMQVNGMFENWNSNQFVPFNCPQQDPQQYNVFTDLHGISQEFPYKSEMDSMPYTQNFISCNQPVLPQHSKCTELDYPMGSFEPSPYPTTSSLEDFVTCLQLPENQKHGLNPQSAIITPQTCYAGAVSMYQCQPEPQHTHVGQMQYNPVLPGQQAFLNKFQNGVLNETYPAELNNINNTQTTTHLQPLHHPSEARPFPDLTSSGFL
The nature of experiment [8]: NIH-3T3 fibroblast cytotoxicity, dose response, cytotoxicity control, cell-based, fluorescence, Alamar Blue, secondary assay (AID 2327).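 Note: NIH-3T3 mouse fibroblasts cultured with fluconazole at 8 µg/mL.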 It is filed as functional. (Alamar Blue is a resazurin reagent that responds to reducing activity.)
Experiment [9] is described as follows: C. albicans growth with fluconazole, confirmation, fluorescence, retest (AID 2467). Format: functional, cell-based.
Experiment [10] addresses T6, Polyadenylate-binding protein 1 (Homo sapiens, UniProt P11940). Description: PABP1 MLLE–PAM2 interaction inhibitors, dose response, miRNA deadenylation inhibitor project, biochemical, fluorescence polarization, Cy5-PAM2 peptide, secondary (AID 602260). The conditions noted are these: read-out: IC50_Mean. It is filed as functional. For orientation: Fluorescence polarisation rises when a labelled molecule tumbles more slowly, as on binding a larger partner.

Experiment [11] concerns the target T6, Polyadenylate-binding protein 1. Briefly: PABP1 MLLE–PAM2 binding inhibitor potency, dose response, biochemical, fluorescence polarization, FITC-PAM2 peptide (AID 602259). It is filed as functional. The conditions noted are these: read-out: IC50_Mean.
For experiment [12], the target named is T7, Apoptotic protease-activating factor 1 (Homo sapiens, UniProt O14727).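 Note: caspase-3 cleavage of fluorogenic Rh110 DEVD substrate downstream of apoptosome activation.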
T7 sequence (O14727 whole entry): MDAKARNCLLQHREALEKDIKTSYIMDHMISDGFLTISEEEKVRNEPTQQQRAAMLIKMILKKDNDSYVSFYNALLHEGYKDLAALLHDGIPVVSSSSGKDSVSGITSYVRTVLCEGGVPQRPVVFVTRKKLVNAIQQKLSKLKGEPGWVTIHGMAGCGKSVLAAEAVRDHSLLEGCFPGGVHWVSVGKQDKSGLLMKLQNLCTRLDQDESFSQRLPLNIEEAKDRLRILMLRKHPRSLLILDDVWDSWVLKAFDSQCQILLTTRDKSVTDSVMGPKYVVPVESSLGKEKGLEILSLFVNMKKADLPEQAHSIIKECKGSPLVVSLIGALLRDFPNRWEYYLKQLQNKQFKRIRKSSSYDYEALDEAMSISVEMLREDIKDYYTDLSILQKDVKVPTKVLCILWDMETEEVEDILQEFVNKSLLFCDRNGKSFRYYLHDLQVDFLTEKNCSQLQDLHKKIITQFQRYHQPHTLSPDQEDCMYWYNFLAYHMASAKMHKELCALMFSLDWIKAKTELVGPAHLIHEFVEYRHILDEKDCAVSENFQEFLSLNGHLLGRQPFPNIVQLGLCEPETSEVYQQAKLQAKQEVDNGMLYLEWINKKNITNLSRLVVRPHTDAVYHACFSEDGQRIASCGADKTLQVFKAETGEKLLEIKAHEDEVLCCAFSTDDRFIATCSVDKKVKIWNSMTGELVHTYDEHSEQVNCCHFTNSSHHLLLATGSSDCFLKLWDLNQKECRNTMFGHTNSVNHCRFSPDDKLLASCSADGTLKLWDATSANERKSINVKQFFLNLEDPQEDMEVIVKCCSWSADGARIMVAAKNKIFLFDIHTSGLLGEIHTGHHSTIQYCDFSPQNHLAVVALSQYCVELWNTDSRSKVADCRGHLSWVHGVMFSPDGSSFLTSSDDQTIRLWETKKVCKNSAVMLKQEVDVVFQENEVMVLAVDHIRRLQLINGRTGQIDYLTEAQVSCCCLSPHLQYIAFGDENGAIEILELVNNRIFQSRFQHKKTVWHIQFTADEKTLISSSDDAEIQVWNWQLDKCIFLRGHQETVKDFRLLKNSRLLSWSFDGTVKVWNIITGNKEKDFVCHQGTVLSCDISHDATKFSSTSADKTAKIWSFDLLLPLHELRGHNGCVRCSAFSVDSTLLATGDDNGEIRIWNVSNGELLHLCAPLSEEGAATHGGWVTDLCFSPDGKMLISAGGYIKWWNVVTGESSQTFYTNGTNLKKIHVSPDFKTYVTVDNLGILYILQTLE
Description: SAR analysis of small molecule Activators of Apaf-1 in a Fluorescent assay. The conditions noted are these: read-out: EC50_Mean. Format: functional.

In another experiment the target is Cytochrome P450 2C19 (Homo sapiens, UniProt P33261). Description: Cytochrome panel assay with activity outcomes. Panel member name: p450-cyp2c19 Compounds with AC50 equal or less than 10 uM are considered active. It is filed as functional. The conditions noted are these: read-out: AC50.
Cytochrome P450 2C19, sequence (P33261 whole entry): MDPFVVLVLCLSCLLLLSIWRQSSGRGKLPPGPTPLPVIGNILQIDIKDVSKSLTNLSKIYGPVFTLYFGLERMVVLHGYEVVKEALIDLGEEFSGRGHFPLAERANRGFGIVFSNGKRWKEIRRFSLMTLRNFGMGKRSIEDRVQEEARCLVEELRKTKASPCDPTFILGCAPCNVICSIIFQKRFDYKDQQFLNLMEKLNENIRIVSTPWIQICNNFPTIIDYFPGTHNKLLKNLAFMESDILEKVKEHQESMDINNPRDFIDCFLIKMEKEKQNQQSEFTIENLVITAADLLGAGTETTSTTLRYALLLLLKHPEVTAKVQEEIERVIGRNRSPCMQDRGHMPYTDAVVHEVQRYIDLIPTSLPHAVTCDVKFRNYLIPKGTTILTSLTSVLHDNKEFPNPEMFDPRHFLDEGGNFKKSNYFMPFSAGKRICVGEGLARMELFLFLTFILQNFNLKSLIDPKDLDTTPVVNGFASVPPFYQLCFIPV
A further experiment has as its target Cytochrome P450 3A4 (Homo sapiens, UniProt P08684).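 Note: CYP3A4 tested as one member of a cytochrome P450 panel screen.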
Another experiment concerns the target Cytochrome P450 2C9 (Homo sapiens, UniProt P11712).

T6 sequence (P11940 whole entry): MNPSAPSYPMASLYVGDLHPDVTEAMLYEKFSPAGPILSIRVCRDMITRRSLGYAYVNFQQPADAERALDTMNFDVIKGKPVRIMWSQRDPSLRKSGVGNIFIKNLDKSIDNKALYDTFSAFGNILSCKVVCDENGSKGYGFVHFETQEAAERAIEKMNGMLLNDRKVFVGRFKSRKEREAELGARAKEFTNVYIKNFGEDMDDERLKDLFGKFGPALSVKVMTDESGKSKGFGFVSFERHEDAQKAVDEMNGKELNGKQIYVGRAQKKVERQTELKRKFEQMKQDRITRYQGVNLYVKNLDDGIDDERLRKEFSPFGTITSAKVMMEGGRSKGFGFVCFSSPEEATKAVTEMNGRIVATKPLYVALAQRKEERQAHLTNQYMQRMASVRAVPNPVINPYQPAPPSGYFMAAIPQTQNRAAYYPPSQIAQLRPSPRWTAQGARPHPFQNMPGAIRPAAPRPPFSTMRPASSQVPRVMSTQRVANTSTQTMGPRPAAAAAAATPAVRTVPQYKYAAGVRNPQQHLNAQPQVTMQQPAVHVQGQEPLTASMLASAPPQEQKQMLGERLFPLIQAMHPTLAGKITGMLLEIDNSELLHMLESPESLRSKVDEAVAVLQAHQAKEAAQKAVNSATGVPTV
Adenosylmethionine-8-amino-7-oxononanoate aminotransferase, sequence (P9WQ81 whole entry): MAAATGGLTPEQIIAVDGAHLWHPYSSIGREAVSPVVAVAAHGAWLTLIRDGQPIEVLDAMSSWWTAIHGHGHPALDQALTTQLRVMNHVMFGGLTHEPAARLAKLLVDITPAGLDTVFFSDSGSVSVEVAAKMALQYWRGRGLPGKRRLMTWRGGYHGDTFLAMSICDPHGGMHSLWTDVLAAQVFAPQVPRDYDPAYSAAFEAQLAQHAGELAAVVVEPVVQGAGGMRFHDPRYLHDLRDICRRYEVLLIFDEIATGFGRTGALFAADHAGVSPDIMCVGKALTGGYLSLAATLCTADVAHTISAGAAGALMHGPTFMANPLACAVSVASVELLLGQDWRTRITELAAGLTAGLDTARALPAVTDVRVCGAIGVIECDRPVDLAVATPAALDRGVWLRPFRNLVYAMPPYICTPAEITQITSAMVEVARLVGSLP
Cytochrome P450 3A4, sequence (P08684 whole entry): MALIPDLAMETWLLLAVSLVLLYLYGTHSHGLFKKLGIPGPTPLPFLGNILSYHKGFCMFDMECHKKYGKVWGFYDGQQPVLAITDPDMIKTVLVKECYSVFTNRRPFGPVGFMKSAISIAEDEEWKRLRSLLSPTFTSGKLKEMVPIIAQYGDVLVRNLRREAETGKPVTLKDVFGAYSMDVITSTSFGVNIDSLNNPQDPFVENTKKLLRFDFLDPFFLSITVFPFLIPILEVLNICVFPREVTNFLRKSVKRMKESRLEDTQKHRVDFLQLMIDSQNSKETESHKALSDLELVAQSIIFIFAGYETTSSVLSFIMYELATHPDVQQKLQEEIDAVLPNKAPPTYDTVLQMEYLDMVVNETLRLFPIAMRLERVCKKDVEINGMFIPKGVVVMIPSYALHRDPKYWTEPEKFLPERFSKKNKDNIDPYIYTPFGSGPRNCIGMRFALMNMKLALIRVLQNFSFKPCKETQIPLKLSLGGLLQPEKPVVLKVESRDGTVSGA
Cytochrome P450 2C9, sequence (P11712 whole entry): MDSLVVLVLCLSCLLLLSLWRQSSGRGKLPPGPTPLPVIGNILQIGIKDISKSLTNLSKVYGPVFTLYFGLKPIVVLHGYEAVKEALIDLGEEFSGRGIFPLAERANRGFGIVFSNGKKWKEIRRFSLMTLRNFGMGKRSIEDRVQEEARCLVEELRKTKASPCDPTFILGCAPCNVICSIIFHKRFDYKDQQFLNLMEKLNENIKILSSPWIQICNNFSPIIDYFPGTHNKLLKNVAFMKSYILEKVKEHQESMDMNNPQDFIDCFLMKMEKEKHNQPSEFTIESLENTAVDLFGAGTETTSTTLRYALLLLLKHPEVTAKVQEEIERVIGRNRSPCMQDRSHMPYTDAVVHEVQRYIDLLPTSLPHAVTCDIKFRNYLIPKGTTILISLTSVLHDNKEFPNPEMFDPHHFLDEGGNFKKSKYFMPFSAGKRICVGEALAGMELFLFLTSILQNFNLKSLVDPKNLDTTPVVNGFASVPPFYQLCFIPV

The term AC50 denotes the concentration giving half of the maximal activity seen. On to `O=C(C1CCOCC1)N1CC[C@@H]2[C@H](CO)Nc3ccc(Br)cc3[C@@H]21`, for which the AC50 in experiment [1] is 4.43 µM (active).

For `O=C(Oc1ccc(OC(=O)N2CCOCC2)cc1)c1ccccc1`, the IC50 on Caspase-3 was 14.8 µM (active); in experiment [2], 14.2 µM (active); in experiment [3], > 100 µM (inactive); in experiment [4], > 100 µM (inactive).

Take `CCOC(=O)c1cnc(SSc2ncc(C(=O)OCC)c(N)n2)nc1N`: the IC50 in experiment [5] was 14.5 µM (active).

`Cc1ccc(-c2nc(NCc3cccnc3)c3ccccc3n2)cc1`: the IC50 in [5] was 13.7 µM (active); in experiment [6], 8.04 µM (active).

`COP(=S)(OC)Oc1c(Cl)cc(C)cc1Cl` [TOLCOFOS-METHYL]: the AC50 in experiment [7] was 79.4 µM (inconclusive).

`Cc1[nH]n(C(N)=S)c(=O)c1/N=N/c1ccc(S(=O)(=O)N2CCCCCC2)cc1`: the EC50 was > 160 µM (inactive) in experiment [8] and > 38 µM (not active) in experiment [9]. In addition, the IC50 on Caspase-3 is 12.9 µM (active); in [2], 9.68 µM (active); in experiment [3], 15.5 µM (active); in experiment [4], 2.52 µM (active); in experiment [10], > 66 µM (inactive); in experiment [11] it was > 66 µM (inactive).

On to `CCS(=O)(=O)c1ccc2c(c1)NC(=O)C(C)(C(=O)O)O2` (centres undefined), for which the EC50 in experiment [12] was > 100 µM (inactive).

`CC(=O)c1ccc(C(=O)N2CCCC(CCC(=O)N(C)CCc3ccccn3)C2)s1` (centres undefined): in experiment [1], the AC50 is 12.4 µM (active).

As to `COc1ccc(C)cc1NC(=O)CCS(=O)(=O)c1ccc2c(c1)CC(=O)N2C`, in experiment [12], the EC50 is > 100 µM (inactive).

As to `O=C(Nc1cccc(-c2nc3ncccc3o2)c1)c1sc2ccccc2c1Cl`, the results for the AC50 on Cytochrome P450 2C19, on Cytochrome P450 3A4 and at Cytochrome P450 2C9 were 0.355 µM (inconclusive), 3.98 µM (inconclusive) and 2 µM (inconclusive), respectively. Also, the IC50 in experiment [6] was 3.81 µM (active).
